The results in this text go back to patent publication US9233977B2, “Leucine-rich repeat kinase enzyme activity” (Merck Sharp & Dohme Corp., priority 2010, dated 2016).

For this assay, the target named is T1, LRRK2 G2019S mutant kinase (Homo sapiens, UniProt Q5S007, G2019S).
T1 construct: GST; purchased Invitrogen PV4882
The assay can be described thus: LRRK2 G2019S LanthaScreen TR-FRET kinase assay. The class given is biochemical. The settings on record: LRRK2 G2019S GST-tagged protein, 75 nM Fluorescein-ERM (LRRKtide), 100 μM ATP, 1 hour at room temperature; read-out: IC50 (potency). The protocol: The final solvent concentration in the assay was 1% DMSO. […] Generation of raw data and workup of data to derive the IC50 (potency) and maximal inhibition at concentrations tested were performed using Merck's Assay Data Analyzer (ADA) software.
The IC50 (potency) was evaluated for the example compounds presented above.
On the technique in general: Time-resolved FRET reads energy transfer from a long-lived donor to a nearby acceptor.

For orientation: IC50 means the concentration that inhibits the measured activity by half.

T1 sequence (Q5S007 whole entry G2019S): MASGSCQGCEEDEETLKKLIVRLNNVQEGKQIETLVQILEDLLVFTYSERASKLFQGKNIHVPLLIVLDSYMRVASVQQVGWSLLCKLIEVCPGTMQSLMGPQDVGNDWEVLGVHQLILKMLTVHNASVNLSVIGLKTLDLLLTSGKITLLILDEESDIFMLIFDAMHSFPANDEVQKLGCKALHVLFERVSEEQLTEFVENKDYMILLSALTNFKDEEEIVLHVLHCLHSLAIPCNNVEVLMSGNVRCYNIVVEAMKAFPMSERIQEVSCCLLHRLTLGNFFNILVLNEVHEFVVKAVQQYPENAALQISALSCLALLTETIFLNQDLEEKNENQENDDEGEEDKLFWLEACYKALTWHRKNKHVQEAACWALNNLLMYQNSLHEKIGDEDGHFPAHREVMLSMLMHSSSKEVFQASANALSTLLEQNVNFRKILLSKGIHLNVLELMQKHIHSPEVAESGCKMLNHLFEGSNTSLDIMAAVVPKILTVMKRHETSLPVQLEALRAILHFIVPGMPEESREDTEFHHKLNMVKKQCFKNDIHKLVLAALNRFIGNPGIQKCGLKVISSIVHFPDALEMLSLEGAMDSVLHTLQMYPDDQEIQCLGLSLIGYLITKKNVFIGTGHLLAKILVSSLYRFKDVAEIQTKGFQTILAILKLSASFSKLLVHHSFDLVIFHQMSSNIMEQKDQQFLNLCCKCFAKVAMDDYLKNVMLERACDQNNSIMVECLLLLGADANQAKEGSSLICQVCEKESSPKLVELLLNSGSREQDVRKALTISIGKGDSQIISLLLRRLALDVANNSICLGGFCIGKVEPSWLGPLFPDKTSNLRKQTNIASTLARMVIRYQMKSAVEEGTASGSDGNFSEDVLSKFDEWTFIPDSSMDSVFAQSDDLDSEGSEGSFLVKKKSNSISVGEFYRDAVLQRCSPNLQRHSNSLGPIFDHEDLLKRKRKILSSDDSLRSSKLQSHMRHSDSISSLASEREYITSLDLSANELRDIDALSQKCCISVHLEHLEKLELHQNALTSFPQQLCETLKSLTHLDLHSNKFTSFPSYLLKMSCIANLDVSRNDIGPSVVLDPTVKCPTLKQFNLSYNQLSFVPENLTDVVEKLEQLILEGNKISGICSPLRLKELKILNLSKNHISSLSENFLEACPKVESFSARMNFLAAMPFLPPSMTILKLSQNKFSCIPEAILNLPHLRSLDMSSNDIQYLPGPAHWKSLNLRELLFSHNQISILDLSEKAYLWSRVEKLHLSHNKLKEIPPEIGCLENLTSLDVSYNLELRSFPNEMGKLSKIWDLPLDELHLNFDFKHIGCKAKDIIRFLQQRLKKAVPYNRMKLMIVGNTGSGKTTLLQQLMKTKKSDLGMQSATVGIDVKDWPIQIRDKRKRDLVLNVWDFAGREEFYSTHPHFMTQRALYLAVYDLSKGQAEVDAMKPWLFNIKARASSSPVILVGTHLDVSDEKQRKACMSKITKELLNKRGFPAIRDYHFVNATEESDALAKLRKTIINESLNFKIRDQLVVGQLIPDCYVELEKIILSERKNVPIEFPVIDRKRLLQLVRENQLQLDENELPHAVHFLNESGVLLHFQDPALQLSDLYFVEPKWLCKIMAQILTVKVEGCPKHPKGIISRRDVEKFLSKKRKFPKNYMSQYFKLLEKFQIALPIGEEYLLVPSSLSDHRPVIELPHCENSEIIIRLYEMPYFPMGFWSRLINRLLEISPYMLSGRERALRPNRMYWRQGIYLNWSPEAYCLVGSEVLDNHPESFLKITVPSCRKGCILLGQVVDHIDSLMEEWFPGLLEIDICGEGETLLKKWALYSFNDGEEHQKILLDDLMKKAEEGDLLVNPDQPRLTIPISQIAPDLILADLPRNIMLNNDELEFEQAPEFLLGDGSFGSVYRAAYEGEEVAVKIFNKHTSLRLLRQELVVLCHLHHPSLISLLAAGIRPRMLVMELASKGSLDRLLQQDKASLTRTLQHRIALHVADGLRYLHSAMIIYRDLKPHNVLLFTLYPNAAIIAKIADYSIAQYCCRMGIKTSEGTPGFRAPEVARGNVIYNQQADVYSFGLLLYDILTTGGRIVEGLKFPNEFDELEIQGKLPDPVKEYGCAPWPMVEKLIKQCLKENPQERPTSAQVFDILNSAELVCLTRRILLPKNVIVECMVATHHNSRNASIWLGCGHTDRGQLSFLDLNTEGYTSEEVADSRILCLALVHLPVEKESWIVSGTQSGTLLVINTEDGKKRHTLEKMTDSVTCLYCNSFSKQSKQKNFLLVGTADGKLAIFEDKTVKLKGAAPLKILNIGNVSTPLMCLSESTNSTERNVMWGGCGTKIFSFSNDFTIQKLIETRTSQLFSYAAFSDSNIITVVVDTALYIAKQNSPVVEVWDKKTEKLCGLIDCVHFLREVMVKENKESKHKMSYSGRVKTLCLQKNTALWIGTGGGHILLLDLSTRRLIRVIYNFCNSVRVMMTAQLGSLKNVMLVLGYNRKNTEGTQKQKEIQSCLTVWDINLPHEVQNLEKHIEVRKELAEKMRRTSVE

`CSc1sc(-c2cc[nH]n2)c2c1C(=O)NC(C)C2` (stereo not shown) [Example 3, 6-methyl-3-(methylsulfanyl)-1-(1H-pyrazol-3-yl)-6,7-dihydrothieno[3,4-c]pyridin-4(5)-one]: the IC50 amounted to 260 nM.

`O=C1NC2(CCC2)Cc2c(-c3cc[nH]n3)sc(SC3CCCC3)c21` [Example 32, 3′-(cyclopentylsulfanyl)-4′-oxo-1′-(1H-pyrazol-3-yl)-7′H-spiro[cyclobutane-1,6′-thieno[3,4-1]pyridine]-4′(5′H)-one]: the IC50 came to 140 nM. As to `C[C@@H]1Cc2c(-c3cc[nH]n3)sc(NC3CCCC3)c2C(=O)N1` [Example 98, (6R)-3-(cyclopentylamino)-6-methyl-1-(1H-pyrazol-3-yl)-6,7-dihydrothieno[3,4-c]pyridin-4(5H)-one], the IC50 turned out to be 330 nM. As to `CC1CNC(=O)c2c(SCC3CC3)sc(-c3cc[nH]n3)c21` (stereo in doubt) [Example 29], the half-inhibitory concentration (IC50) was found to be 31 nM. Then `CSc1sc(-c2cc[nH]n2)c2c1C(=O)NC(C1CCC1)C2` (stereo not shown) [Example 14, 6-cyclobutyl-3-(methylsulfanyl)-1-(1H-pyrazol-3-yl)-6,7-dihydrothieno[3,4-c]pyridin-4(5)-one], with 190 nM; and `CCN(CC)CCSc1sc(-c2cc[nH]n2)c2c1C(=O)NCC2` [Example 39, 3-{[2-{diethylamino)ethyl]sulfanyl}-1-(1H-pyrazol-3-yl)-6,7-dihydrothieno[3,4-c]pyridin-4(5)-one], with 5700 nM; and `CSc1sc(-c2cc[nH]n2)c2c1C(=O)NC1(CCCC1)C2` [Example 8, 3′-(methylsulfanyl)-4′-oxo-1′-(1H-pyrazol-3-yl)-7′H-spiro[cyclopentane-1,6′-thieno[3,4-1]pyridine]-4′(5′H)-one], with 220 nM.

Take `CSc1sc(-c2cc[nH]n2)c2c1C(=O)N(Cc1cccnc1)CC2` [Example 61, 5-[(3-pyridinyl)methyl]-3-(methylsulfanyl)-1-(1H-pyrazol-3-yl)-6,7-dihydrothieno[3,4-c]pyridin-4(5)-one]: the half-maximal inhibitory concentration (IC50) was found to be 2100 nM. Then `CCCSc1sc(-c2cc[nH]n2)c2c1C(=O)NCC2` [Example 43, 3-propylsulfanyl-1-(1H-pyrazol-3-yl)-6,7-dihydrothieno[3,4-c]pyridin-4(5)-one], with 250 nM; and `CNc1sc(-c2cc[nH]n2)c2c1C(=O)NC1(CCC1)C2` [Example 94, 3′-(methylamino)-4′-oxo-1′-(1H-pyrazol-3-yl)-7′H-spiro[cyclobutane-1,6′-thieno[3,4-1]pyridine]-4′(5′H)-one], with 550 nM; and `CSc1sc(-c2cc[nH]n2)c2c1C(=O)N(CCN1CCOCC1)CC2` [Example 67, 3-(methylsulfanyl)-5-[2-(morpholin-4-yl)ethyl]-1-(1H-pyrazol-3-yl)-6,7-dihydrothieno[3,4-c]pyridin-4(5)-one], with 9200 nM.

Turning to `CSc1sc(-c2cc[nH]n2)c2c1C(=O)N(CCCCOc1ccccc1)CC2` [Example 68, 3-(methylsulfanyl)-5-(4-phenoxybutyl)-1-(1H-pyrazol-3-yl)-6,7-dihydrothieno[3,4-c]pyridin-4(5)-one], the IC50 worked out at 3200 nM. Next, `CSc1sc(-c2cc[nH]n2)c2c1C(=O)N(CCC1CCCNC1)CC2` (stereo not shown) [Example 73, 3-(methylsulfanyl)-5-[2-(3-piperidinyl)ethyl]-1-(1H-pyrazol-3-yl)-6,7-dihydrothieno[3,4-c]pyridin-4(5)-one]: 5900 nM.
